Measured values as given in patent publication US8598187B2, “Arylamide pyrimidone compounds” (Sanofi, priority 2007, dated 2013).

Target: GSK3β (Homo sapiens, UniProt P49841)
Assay: Inhibitory activity against GSK3β (33P-ATP phosphorylation of prephosphorylated GS1 peptide, two protocols)
Assay type: biochemical
Details: protocol 1 or 2 not specified
Description: Inhibitory Activity of the Medicament of the Present Invention Against GSK3β
Two different protocols can be used.
In a first protocol: 7.5 μM of prephosphorylated GS1 peptide and 10 μM ATP (containing 300,000 cpm of ^33P-ATP) were incubated in 25 mM Tris-HCl, pH 7.5, 0.6 mM DTT, 6 mM MgCl2, 0.6 mM EGTA, 0.05 mg/ml BSA buffer for 1 hour at room temperature in the presence of GSK3beta (total reaction volume: 100 microliters).
In a second protocol: 4.1 μM of prephosphorylated GS1 peptide and 42 μM ATP (containing 260,000 cpm ^33P-ATP) were incubated in 80 mM Mes-NaOH, pH 6.5, 1 mM Mg acetate, 0.5 mM EGTA, 5 mM 2-mercaptoethanol, 0.02% Tween 20, 10% glycerol buffer for 2 hours at room temperature in the presence of GSK3beta. Inhibitors were solubilized in DMSO (final solvent concentration in the reaction medium, 1%).
The reaction was stopped with 100 microliters of a solution made of 25 g polyphosphoric acid (85% P2O5), 126 ml 85% H3PO4, H2O to 500 ml and then diluted to 1:100 before use. An aliquot of the reaction mixture was then transferred to Whatman P81 cation exchange filters and rinsed with the solution described above. Incorporated ^33P radioactivity was determined by liquid scintillation spectrometry.
The phosphorylated GS-1 peptide had the following sequence: NH2-[…](P)EDEE-COOH. SEQ ID NO: 1 (Woodgett, J. R. (1989) Analytical Biochemistry 180, 237-241. […]

GSK3β, sequence (P49841 whole entry): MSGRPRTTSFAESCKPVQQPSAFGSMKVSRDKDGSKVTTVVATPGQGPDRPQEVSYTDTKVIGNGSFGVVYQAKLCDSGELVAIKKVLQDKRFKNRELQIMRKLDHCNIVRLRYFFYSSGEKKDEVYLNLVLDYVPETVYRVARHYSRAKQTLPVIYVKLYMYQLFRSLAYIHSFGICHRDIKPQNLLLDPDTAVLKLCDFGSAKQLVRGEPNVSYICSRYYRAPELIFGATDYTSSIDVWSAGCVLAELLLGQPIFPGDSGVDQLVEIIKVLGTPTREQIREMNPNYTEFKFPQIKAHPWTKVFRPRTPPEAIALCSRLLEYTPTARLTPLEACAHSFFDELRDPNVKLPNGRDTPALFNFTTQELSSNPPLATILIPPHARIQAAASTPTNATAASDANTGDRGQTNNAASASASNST

IC50: 85 nM
Compound: COc1cc(Cl)ccc1C(=O)NCCc1nc(-c2ccncn2)cc(=O)n1C [No. 1]
